Measured values published in PubChem BioAssay (NCI).
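All cell lines were grown in 96-well plates and treated with compound for 48 hours. TGI marks complete inhibition of growth.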

Tests used:
Assay in all cases: inhibition of tumour cell growth, NCI panel, 48 h
IGROV1 ovarian = system: IGROV1 ovarian
HOP-62 NSCLC = system: HOP-62 NSCLC
EKVX NSCLC = system: EKVX NSCLC
UACC-257 melanoma = system: UACC-257 melanoma
NCI-H460 lung = system: NCI-H460 lung
UACC-62 melanoma = system: UACC-62 melanoma
SK-OV-3 ovarian = system: SK-OV-3 ovarian
SW-620 colon = system: SW-620 colon
UO-31 renal = system: UO-31 renal
M14 melanoma = system: M14 melanoma

Row | SMILES | TGI (IGROV1 ovarian) [µM] | TGI (HOP-62 NSCLC) [µM] | TGI (EKVX NSCLC) [µM] | TGI (UACC-257 melanoma) [µM] | TGI (NCI-H460 lung) [µM] | TGI (UACC-62 melanoma) [µM] | TGI (SK-OV-3 ovarian) [µM] | TGI (SW-620 colon) [µM] | TGI (UO-31 renal) [µM] | TGI (M14 melanoma) [µM]
1 | CN(C)c1ccc(/C=N/NC2=N/C(=C\c3ccco3)C(=O)N2)cc1 | > 100 | > 100 | > 100 | > 100 | > 100 | > 100 | > 100 | > 100 | > 100 | > 100
2 | CC1=C(N2CC2)C(=O)c2nc3n(c2C1=O)CCC3O (stereo not given) | 1.2 | 0.516 | 1.13 | 0.513 | 0.324 | 0.482 | 0.859 | 0.726 | 4.18 | 2.8
3 | O=C(O)C(Cc1cccs1)C(=O)O | > 100 | > 100 | > 100 | > 100 | > 100 | > 100 | > 100 | > 100 | > 100 | > 100
4 | Nc1nc(N)c2ncn(CC(CO)CC(c3ccccc3)P(=O)(O)O)c2n1 (stereo not given) | > 100 | > 100 | > 100 | > 100 | > 100 | > 100 | > 100 | > 100 | > 100 | 10.4
5 | COc1cc(C2c3cc4c(cc3OC(N3CCOCC3)C2C)OCO4)cc(OC)c1O (stereo not given) | > 70.8 | 35.5 | > 94 | > 100 | > 100 | > 100 | > 50.6 | > 59.6 | > 66.4 | > 100
6 | COC(=O)CC1C2CC3C(C2=O)C13 (stereo not given) | > 100 | > 100 | > 100 | > 100 | > 100 | > 100 | > 100 | > 100 | > 100 | > 100
7 | O=C1CC(O)c2c(Cl)sc(Cl)c21 (stereo not given) | 22.1 | 29.4 | 37.2 | 27.7 | 52.3 | 31.5 | > 100 | 6.5 | 22.8 | 32.7
8 | O=C(CSC1=NCCN1)c1ccccc1 | > 100 | > 100 | > 100 | > 100 | > 100 | > 100 | > 100 | > 100 | > 100 | > 100
9 | CCCc1ccc(N=Cc2cc(OC)c(OC)c(OC)c2)cc1 | > 100 | > 100 | > 100 | > 100 | > 100 | > 100 | > 100 | > 100 | > 100 | > 100
